Earlier results, collected in US10314836B2, “Quinoline carboxamides for use in the treatment of multiple myeloma” (Active Biotech AB, priority 2014, dated 2019).

Test system: castrate resistant prostate cancer (CRPC) metastatic to the bone
Conditions: oral treatment

COc1cccc2c1c(O)c(C(=O)N(C)c1ccc(C(F)(F)F)cc1)c(=O)n2C [tasquinimod, 4-hydroxy-5-methoxy-N,1-dimethyl-2-oxo-N-[4-(trifluoromethyl)phenyl]-1,2-dihydroquinoline-3-carboxamide]
effect on overall survival: lack a sufficient effect on overall survival
